Measurements: US11006626B2, “Compounds for protection of cells” (Sulfateq B.V., priority 2012, dated 2021)
Read-outs that look alike come from different tables or passages of the source.

Test system: Human Embryo Kidney (HEK) 293 cells
Test: Hypothermia/rewarming injury of HEK cells, trypan blue viability count
Assay type: cell-based
Settings: for viability at 0.01 µM / viability at 0.1 µM / viability at 1 µM / viability at 10 µM / viability at 100 µM / viability at 1000 µM: Homo sapiens, read-out: % cells that survived; for viability at 0.01 µM / viability at 0.1 µM / viability at 1 µM / viability at 10 µM / viability at 100 µM / viability at 1000 µM / % cells that survived: 24 h at 4° C., 24 h rewarming; for viability at 0.1 µM: 100 nM; for % cells that survived, Mean: mean over the tested concentrations
Method: Human Embryo Kidney (HEK) 293 cells were cultured in DMEM cell culture medium (Life Technologies, 41965-052) supplemented with fetal calf serum, penicillin and streptomycin. Cells were seeded at a density of 0.8-1.2E6 mL-1 in 25 cm2 polystyrene flasks, placed in a 37° C.
The compounds were dissolved in dimethyl sulfoxide (DMSO) to several concentrations. Before commencing experiments, this stock solution was dissolved in pre-warmed DMEM and further diluted to obtain a concentration range from 10 nM-1 mM. Cell culture medium was then replaced by these dilutions and cells were incubated in the presence of the compound for 1 hour. After incubation, lids were closed tightly and flasks were placed in a 4° C. room and cooled for 24 hours. After this cooling period, cells were placed back in the 37° C. incubator with lids closed and were allowed to rewarm for another 24 hours.
After this rewarming period, microscopic images were taken to assess cell morphology (Nikon D5100, Nikon Diaphot-TMD). Cell culture medium was collected and centrifuged (4 minutes, 2000 rpm). The supernatant was collected and pH was immediately measured to prevent equilibration of the pH by the carbonate buffer in the medium, while the pelleted cells were resuspended in 5 mL of PBS. Cells remaining in the flask were washed twice with phosphate buffered saline (PBS) while the washing product was discarded. Subsequently, the cells were trypsinized by addition of 0.5 mL of trypsine and pooled with the resuspended pellet. This cell suspension was then stained at a final concentration of 0.2% trypan blue (Sigma, T8154), followed by manual assessment of viability and cell number on a Bürker-Türk hemocytometer. To conclude the assay, cell culture medium glucose levels were measured (Roche Accutrend Plus) as an indication of metabolic activity. All of these steps were performed with care to prevent mechanical stress to influence or alter the viability of the cells after cooling.
The amount represents the % cells that survived. […] In the control, the same procedure was applied to two badges of HEK cells.

| Compound | viability at 0.01 µM (HEK293, 24 h, 10 nM) [%] | viability at 0.1 µM (HEK293, 24 h) [%] | viability at 1 µM (HEK293, 24 h) [%] | viability at 10 µM (HEK293, 24 h) [%] | viability at 100 µM (HEK293, 24 h) [%] | viability at 1000 µM (HEK293, 24 h, 1 mM) [%] | % cells that survived, Mean [%] | viability at 0.01 µM (HEK293, 10 nM) [%] | viability at 0.1 µM (HEK293) [%] | viability at 1 µM (HEK293) [%] | viability at 10 µM (HEK293) [%] | viability at 100 µM (HEK293) [%] | viability at 1000 µM (HEK293, 1 mM) [%] | % cells that survived (10 nM) [%] | % cells that survived (1 mM) [%] |
| --- | --- | --- | --- | --- | --- | --- | --- | --- | --- | --- | --- | --- | --- | --- | --- |
| Cc1c(C)c2c(c(C)c1O)CCC(C)(C(=O)NCCC#N)O2 (stereo not drawn) [SUL - 123, N-(2-cyanoethyl)-6-hydroxy-2,5,7,8-tetramethylchroman-2-carboxamide] | 68.4 | 90.5 | 83.2 | 88.4 | 88.2 | 0.75 | 70 |  |  |  |  |  |  |  |  |
| Cc1c(C)c2c(c(C)c1O)CCC(C)(CN1CCCCC1)O2 (stereo not drawn) [SUL - 130, 2,5,7,8-tetramethyl-2-(piperidin-1-ylmethyl)chroman-6-ol] | 0 | 12.7 | 85.7 | 89.6 | 86.5 | 1.49 | 46 |  |  |  |  |  |  |  |  |
| CCCCNC(=O)C1(C)CCc2c(C)c(O)c(C)c(C)c2O1 (stereo not drawn) [SUL - 91, N-butyl-6-hydroxy-2,5,7,8-tetramethylchroman-2-carboxamide] |  | 2.28 | 82.4 | 89.5 | 87.5 | 0 | 52 |  |  |  |  |  |  |  |  |
| Cc1c(C)c2c(c(C)c1O)CCC(C)(C(=O)N1CCOCC1)O2 (stereo not drawn) [SUL - 95, (6-hydroxy-2,5,7,8-tetramethylchroman-2-yl)(morpholino)methanone] |  | 2.76 | 86.8 | 90.4 | 92.1 | 85.9 | 72 |  |  |  |  |  |  |  |  |
| Cc1c(C)c2c(c(C)c1O)CC[C@](C)(C(=O)O)O2 [SUL - 85, (R)-6-hydroxy-2,5,7,8-tetramethylchroman-2-carboxylic acid] |  | 1.23 | 0 | 1.43 | 84.9 | 78.3 | 33 |  |  |  |  |  |  |  |  |
| CCOC(=O)CN1CCN(C(=O)C2(C)CCc3c(C)c(O)c(C)c(C)c3O2)CC1 (stereo not drawn) [SUL - 140, ethyl 2-(4-(6-hydroxy-2,5,7,8-tetramethylchroman-2-carbonyl)piperazin-1-yl)acetate] | 8.7 | 17.9 | 95.7 | 97 | 94.6 | 0 | 52 |  |  |  |  |  |  |  |  |
| Cc1c(C)c2c(c(C)c1O)CCC(C)(C(=O)N[C@@H](C(N)=O)c1ccccc1)O2 (stereo partly drawn) [SUL - 111, N-((R)-2-amino-2-oxo-1-phenylethyl)-6-hydroxy-2,5,7,8-tetramethylchroman-2-carboxamide] | 90.9 | 81.6 | 97.3 | 93.7 | 94.3 | 79.2 | 90 |  |  |  |  |  |  |  |  |
| Cc1c2c(c(C(C)C)c(O)c1C(C)C)CCC(C)(C(=O)N1CCNCC1)O2 (stereo not drawn) [SUL - 137, (6-hydroxy-5,7-diisopropyl-2,8-dimethylchroman-2-yl)(piperazin-1-yl)methanone] | 78.2 | 86.1 | 93.9 | 90.9 | 78.7 | 0.53 | 71 |  |  |  |  |  |  |  |  |
| Cc1c(C)c2c(c(C)c1O)CCC(C)(C(N)=O)O2 (stereo not drawn) [SUL - 89, 6-hydroxy-2,5,7,8-tetramethylchroman-2-carboxamide] |  | 34.9 | 88.6 | 91.6 | 87.6 |  | 76 |  |  |  |  |  |  |  |  |
| CCCCN1CCN(C(=O)C2(C)CCc3c(C)c(O)c(C)c(C)c3O2)CC1 (stereo not drawn) [SUL - 108, (4-butylpiperazin-1-yl)(6-hydroxy-2,5,7,8-tetramethylchroman-2-yl)methanone] | 0 | 40.9 | 94.2 | 96.8 | 96.6 | 0 | 55 |  |  |  |  |  |  |  |  |
| COC(=O)C1(C)CCc2c(c(C)c(C(C)C)c(O)c2C(C)C)O1 (stereo not drawn) [SUL - 146, methyl 6-hydroxy-5,7-diisopropyl-2,8-dimethylchroman-2-carboxylate] | 0.96 | 17 | 90.6 | 80.7 | 85.5 | 0 | 46 |  |  |  |  |  |  |  |  |
| Cc1c(C)c2c(c(C)c1O)CCC(C)(C(=O)NCCBr)O2 (stereo not drawn) [SUL - 114, N-(2-bromoethyl)-6-hydroxy-2,5,7,8-tetramethylchroman-2-carboxamide] |  |  |  |  |  |  | 71 | 81.1 | 87.2 | 89.9 | 87.7 | 77.9 | 0 |  |  |
| Cc1c(C)c2c(c(C)c1O)CCC(C)(CN[C@H](CO)c1ccccc1)O2 (stereo partly drawn) [SUL - 129, 2-((((S)-2-hydroxy-1-phenylethyl)amino)methyl)-2,5,7,8-tetramethylchroman-6-ol] | 0 | 5.65 | 88.8 | 89.9 | 91.5 | 0 | 46 |  |  |  |  |  |  |  |  |
| Cc1c(C)c2c(c(C)c1O)CCC(C)(C(=O)NCc1ccc(F)cc1)O2 (stereo not drawn) [SUL - 97, N-(4-fluorobenzyl)-6-hydroxy-2,5,7,8-tetramethylchroman-2-carboxamide] |  | 0 | 95.1 | 96.4 | 91.6 | 5.17 | 58 |  |  |  |  |  |  |  |  |
| COC(=O)c1ccc(NC(=O)C2(C)CCc3c(C)c(O)c(C)c(C)c3O2)cc1 (stereo not drawn) [SUL - 107, methyl 4-(6-hydroxy-2,5,7,8-tetramethylchroman-2-carboxamido)benzoate] | 4.42 | 95.7 | 92.7 | 94.8 | 37.6 | 28.9 | 59 |  |  |  |  |  |  |  |  |
| Cc1c(C)c2c(c(C)c1O)CCC(C)(CN1CCC[C@H]1CO)O2 (stereo partly drawn) [SUL - 128, 2-(((S)-2-(hydroxymethyl)pyrrolidin-1-yl)methyl)-2,5,7,8-tetramethylchroman-6-ol] |  | 100 | 100 | 100 | 99.4 |  | 71 |  |  |  |  |  |  | 28.21 | 0.00 |
| Cc1c(C)c2c(c(C)c1O)CC[C@@](C)(C(=O)O)O2 [SUL - 84, (S)-6-hydroxy-2,5,7,8-tetramethylchroman-2-carboxylic acid] |  | 6.22 | 19.8 | 70.1 | 95.7 | 94.5 | 57 |  |  |  |  |  |  |  |  |
| Cc1c(C)c2c(c(C)c1O)CCC(C)(C(=O)N1CCC[C@H]1CO)O2 (stereo partly drawn) [SUL - 112, (6-hydroxy-2,5,7,8-tetramethylchroman-2-yl)((S)-2-(hydroxymethyl)pyrrolidin-1-yl)methanone] | 96.3 | 96.5 | 95.4 | 93 | 93.1 | 0 | 79 |  |  |  |  |  |  |  |  |
| CC(C)=CCC/C(C)=C/CNC(=O)C1(C)CCc2c(C)c(O)c(C)c(C)c2O1 (stereo not drawn) [SUL - 93, (E)-N-(3,7-dimethylocta-2,6-dien-1-yl)-6-hydroxy-2,5,7,8-tetramethylchroman-2-carboxamide] |  | 97 | 96.1 | 84 | 21.7 | 8 | 61 |  |  |  |  |  |  |  |  |
| Cc1c(C)c2c(c(C)c1O)CCC(C)(C(=O)Nc1cccc([N+](=O)[O-])c1)O2 (stereo not drawn) [SUL - 104, 6-hydroxy-2,5,7,8-tetramethyl-N-(3-nitrophenyl)chroman-2-carboxamide] | 99.3 | 99.5 | 97.5 | 98.9 | 40.9 | 52.2 | 81 |  |  |  |  |  |  |  |  |
| Cc1c(C)c2c(c(C)c1O)CCC(C)(C(=O)NO)O2 (stereo not drawn) [SUL - 90, N,6-dihydroxy-2,5,7,8-tetramethylchroman-2-carboxamide] |  | 8.67 | 91.3 | 90.2 | 77.9 | 20.4 | 58 |  |  |  |  |  |  |  |  |
| Cc1c(C)c2c(c(C)c1O)CCC(C)(C(=O)N[C@H](CO)c1ccccc1)O2 (stereo partly drawn) [SUL - 98, 6-hydroxy-N-((S)-2-hydroxy-1-phenylethyl)-2,5,7,8-tetramethylchroman-2-carboxamide] |  | 91 | 97.8 | 97.5 | 88.5 | 1.02 | 75 |  |  |  |  |  |  |  |  |
